Columns and labels:
DNA 3WJ = experiment: UV thermal melting of DNA 3WJ (Example 1); format: binding; conditions: Example 1 numbering, DNA 3WJ 1 μM, ligand 4 μM, 10 mM CacoK pH 7.2
Procedure: (§1) An aqueous solution of 10 mM potassium cacodylate (CacoK), pH 7.2 was used as analysis buffer. DNA 3WJ and dsDNA were brought to a final concentration of 1 1.1.1\4 and 2 μM, respectively. Samples were heated to 90° C. for 5 min, cooled to room temperature slowly, then to 4° C. Samples were incubated for 1 hour at room temperature with 3 μL of ligand at a final concentration of 4 μM for DNA 3WJ. The concentration of the ligand was 8 μM for dsDNA. Denaturation was recorded at 260 nm from 5° C. to 90° C. with a heating rate of 0.5° C. min^−1. Upper and lower baselines were used to plot the fraction folded.

dsDNA = experiment: UV thermal melting of dsDNA (Example 1); format: binding; conditions: Example 1 numbering, dsDNA 2 μM, ligand 8 μM, 10 mM CacoK pH 7.2
Procedure: as §1

A2780cis cells = experiment: Alamar blue cytotoxicity assay, A2780cis; format: cell-based, human
Procedure: (§2) All cell lines were maintained in a humidified incubator at 37° C. in 5% CO2. A2780 and A2780cis cells were cultured in RPMI 1640 (Corning Cellgro) supplemented with 10% fetal bovine serum (Giboc, Life Technologies), 1% L-glutamine (Corning Cellgro), penicillin and streptomycin (Corning Cellgro). Cells were seeded at a density of 2,000 cells/well in culture media (50 pt) in […] plates 24 hours prior to treatment. Cells were treated with DMSO (vehicle control), doxorubicin (positive control, 10 μM final), cisplatin (50 μM to 25 nM), or triptycenes (50 μM to 25 nM) for 72 hours at 37° C. with 5% CO2. DMSO concentrations were kept at 1%. Alamar blue (5 μL) was added and incubated for 4 hours. Fluorescence was measured at 590 nm. The vehicle control was taken as 100% cell viability and doxorubicin was taken as 0% viability.

A2780 cells = experiment: Alamar blue cytotoxicity assay, A2780; format: cell-based, human; conditions: Example 1 numbering, 72 hours, viability shown at 50 μM
Procedure: as §2

[1] = system: d(CAG)n(CTG) repeat nucleic acid junction; experiment: Fluorescence quenching assay, TNR 3WJ (Example 5); format: binding; conditions: comparison in words
Procedure: Fluorescence Quenching Assay: All experiments were conducted in 50 mM sodium phosphate buffer, pH 7.2. Fluorescence measurements were recorded with excitation at 495 nm and emission at 520 nm using 5 nm bandwidths on a Tecan M1000 plate reader. […] Samples were incubated for 2h and measured in triplicate in a 384-well plate.

CN(CCCN)CCCNC(=O)c1ccccc1 [Compound 4 (Example 1), N-(3-((3-aminopropyl)(methyl)amino)propyl)benzamide]
ΔTm, stabilization of DNA 3WJ (DNA 3WJ): 2.0 °C | ΔTm, dsDNA (dsDNA): −1.3 °C

NCCCCCCCNC(=O)c1ccc2c(c1)C1c3ccc(C(=O)NCCCCCCCN)cc3C2c2cc(C(=O)NCCCCCCCN)ccc21 [Trip 2 (Example 1), N^2,N^6,N^14-tris(7-aminoheptyl)-9,10-dihydro-9,10-[1,2]benzenoanthracene-2,6,14-tricarboxamide]
viability of A2780cis cells (A2780cis cells; 50 µM): 6%

CN(C)CCCNC(=O)c1ccc2c(c1)C1c3ccc(C(=O)NCCCN(C)C)cc3C2c2cc(C(=O)NCCCN(C)C)ccc21 [Trip 3 (Example 1), N^2,N^6,N^14-tris(3-(dimethylamino)propyl)-9,10-dihydro-9,10-[1,2]benzenoanthracene-2,6,14-tricarboxamide]
cytotoxicity in A2780 cells (A2780 cells): No cytotoxic activity | cytotoxicity in A2780cis cells (A2780cis cells; Example 1 numbering, cisplatin-resistant line, Alamar blue, 72 hours, viability shown at 50 μM): No cytotoxic activity

NCCCCC(N)C(=O)Nc1ccc2c(c1)C1c3ccc(NC(=O)C(N)CCCCN)cc3C2c2cc(NC(=O)C(N)CCCCN)ccc21 [Trip 3 (Example 3), (2S,2'S,2″S)—N,N′,N″-(9,10-dihydro-9,10-[1,2]benzenoanthracene-2,7,15-triyl)tris(2,6-diaminohexanamide)]
relative binding affinity toward the TNR junction [1]: highest affinity

NC(Cc1cnc[nH]1)C(=O)Nc1ccc2c(c1)C1c3ccc(NC(=O)C(N)Cc4cnc[nH]4)cc3C2c2cc(NC(=O)C(N)Cc3cnc[nH]3)ccc21 [Trip 4 (Example 3), (2S,2′S,2″S)—N,N′,N″-(9,10-dihydro-9,10-[1,2]benzenoanthracene-2,7,15-triyl)tris(2-amino-3-(1H-imidazol-5-yl)propanamide)]
relative binding affinity toward the TNR junction [1]: highest affinity

Source: patent US20180265911A1, “TRIPTYCENE DERIVATIVES FOR NUCLEIC ACID JUNCTION STABILIZATION” (THE TRUSTEES OF THE UNIVERSITY OF PENNSYLVANIA, priority 2015, published 2018)
